Laboratory results reported in PubChem BioAssay (NCI).
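Step 1: Grow cells in 96-well plates. Step 2: Expose to compound for 48 hours at 5 concentrations. Step 3: Interpolate endpoints linearly; if unreached, use highest concentration. TGI marks complete inhibition of growth.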

Legend:
Experiment in all cases: NCI tumour cell line growth inhibition, 48 h
786-0 renal = tested on: 786-0 renal
A498 renal = tested on: A498 renal
A549 NSCLC = tested on: A549 NSCLC
ACHN renal = tested on: ACHN renal
BT-549 breast = tested on: BT-549 breast
CAKI-1 renal = tested on: CAKI-1 renal
CCRF-CEM leukemia = tested on: CCRF-CEM leukemia
COLO 205 colon = tested on: COLO 205 colon
DU-145 prostate = tested on: DU-145 prostate
EKVX NSCLC = tested on: EKVX NSCLC
HCC-2998 colon = tested on: HCC-2998 colon
HCT-116 colon = tested on: HCT-116 colon
HCT-15 colon = tested on: HCT-15 colon
HL-60(TB) leukemia = tested on: HL-60(TB) leukemia
HOP-62 NSCLC = tested on: HOP-62 NSCLC
HOP-92 NSCLC = tested on: HOP-92 NSCLC
HS 578T breast = tested on: HS 578T breast
HT29 colon = tested on: HT29 colon
IGROV1 ovarian = tested on: IGROV1 ovarian
K-562 leukemia = tested on: K-562 leukemia
KM12 colon = tested on: KM12 colon
LOX IMVI melanoma = tested on: LOX IMVI melanoma
M14 melanoma = tested on: M14 melanoma
MALME-3M melanoma = tested on: MALME-3M melanoma
MCF7 breast = tested on: MCF7 breast
MDA-MB-231 breast = tested on: MDA-MB-231 breast
MDA-MB-435 = tested on: MDA-MB-435
MDA-N = tested on: MDA-N
MOLT-4 leukemia = tested on: MOLT-4 leukemia
NCI-H226 lung = tested on: NCI-H226 lung
NCI-H23 lung = tested on: NCI-H23 lung
NCI-H460 lung = tested on: NCI-H460 lung
NCI-H522 lung = tested on: NCI-H522 lung
NCI/ADR-RES ovarian = tested on: NCI/ADR-RES ovarian
OVCAR-3 ovarian = tested on: OVCAR-3 ovarian
OVCAR-4 ovarian = tested on: OVCAR-4 ovarian
OVCAR-5 ovarian = tested on: OVCAR-5 ovarian
OVCAR-8 ovarian = tested on: OVCAR-8 ovarian
PC-3 prostate = tested on: PC-3 prostate
RPMI-8226 leukemia = tested on: RPMI-8226 leukemia
RXF 393 renal = tested on: RXF 393 renal
SF-268 CNS = tested on: SF-268 CNS
SF-295 CNS = tested on: SF-295 CNS
SF-539 CNS = tested on: SF-539 CNS
SK-MEL-2 melanoma = tested on: SK-MEL-2 melanoma
SK-MEL-28 melanoma = tested on: SK-MEL-28 melanoma
SK-MEL-5 melanoma = tested on: SK-MEL-5 melanoma
SK-OV-3 ovarian = tested on: SK-OV-3 ovarian
SN12C renal = tested on: SN12C renal
SNB-19 CNS = tested on: SNB-19 CNS
SNB-75 CNS = tested on: SNB-75 CNS
SW-620 colon = tested on: SW-620 colon
T-47D breast = tested on: T-47D breast
TK-10 renal = tested on: TK-10 renal
U251 CNS = tested on: U251 CNS
UACC-257 melanoma = tested on: UACC-257 melanoma
UACC-62 melanoma = tested on: UACC-62 melanoma
UO-31 renal = tested on: UO-31 renal

`COc1cc(C(c2c(O)c3ccccc3oc2=O)c2c(O)c3ccccc3oc2=O)ccc1O` showed a TGI (786-0 renal) of 56 µM, a TGI (A498 renal) of over 100 µM and a TGI (A549 NSCLC) of over 100 µM. The TGI (ACHN renal) was 40.2 µM, the TGI (BT-549 breast) was 38.9 µM and the TGI (CAKI-1 renal) was 36.5 µM. The TGI (CCRF-CEM leukemia) was 89.6 µM, the TGI (COLO 205 colon) was 31.7 µM and the TGI (DU-145 prostate) was 52.6 µM. For the same compound, the TGI (EKVX NSCLC) was 80.9 µM, the TGI (HCC-2998 colon) was 33.9 µM and the TGI (HCT-116 colon) was over 100 µM. It also gave a TGI (HCT-15 colon) of 36 µM, a TGI (HL-60(TB) leukemia) of 57.9 µM and a TGI (HOP-62 NSCLC) of over 100 µM. For the same compound, the TGI (HOP-92 NSCLC) was 33.8 µM, the TGI (HS 578T breast) was over 100 µM and the TGI (HT29 colon) was 40.8 µM. For the same compound, the TGI (IGROV1 ovarian) was 27.2 µM, the TGI (K-562 leukemia) was over 100 µM and the TGI (KM12 colon) was 87.1 µM. It also gave a TGI (LOX IMVI melanoma) of 65.1 µM, a TGI (M14 melanoma) of 34.7 µM and a TGI (MALME-3M melanoma) of 38 µM. It also gave a TGI (MCF7 breast) of 38.2 µM, a TGI (MDA-MB-231 breast) of 35.9 µM and a TGI (MDA-MB-435) of over 100 µM. The TGI (MDA-N) was 44.8 µM, the TGI (MOLT-4 leukemia) was 62.4 µM and the TGI (NCI-H226 lung) was over 100 µM. It also gave a TGI (NCI-H23 lung) of over 100 µM, a TGI (NCI-H460 lung) of 44.6 µM and a TGI (NCI-H522 lung) of 43.2 µM. It also gave a TGI (NCI/ADR-RES ovarian) of over 100 µM, a TGI (OVCAR-3 ovarian) of 34.6 µM and a TGI (OVCAR-4 ovarian) of over 100 µM. For the same compound, the TGI (OVCAR-5 ovarian) was 41.3 µM, the TGI (OVCAR-8 ovarian) was over 100 µM and the TGI (PC-3 prostate) was 94.6 µM. For the same compound, the TGI (RPMI-8226 leukemia) was over 100 µM, the TGI (RXF 393 renal) was 33.7 µM and the TGI (SF-268 CNS) was 45.4 µM. For the same compound, the TGI (SF-295 CNS) was over 100 µM, the TGI (SF-539 CNS) was 53.9 µM and the TGI (SK-MEL-2 melanoma) was 58.5 µM. It also gave a TGI (SK-MEL-28 melanoma) of 36.5 µM, a TGI (SK-MEL-5 melanoma) of 30.3 µM and a TGI (SK-OV-3 ovarian) of over 100 µM. For the same compound, the TGI (SN12C renal) was 42 µM, the TGI (SNB-19 CNS) was 92 µM and the TGI (SNB-75 CNS) was 66.1 µM. For the same compound, the TGI (SW-620 colon) was 63.1 µM, the TGI (T-47D breast) was 33.9 µM and the TGI (TK-10 renal) was 46.1 µM. It also gave a TGI (U251 CNS) of 58.4 µM, a TGI (UACC-257 melanoma) of 37.1 µM and a TGI (UACC-62 melanoma) of 35.4 µM. For the same compound, the TGI (UO-31 renal) was 65.6 µM.
In the case of `COC(=O)Cc1cc2c(cc1C(=O)c1ccc(N)cc1)OCO2`, the TGI (786-0 renal) was over 100 µM, the TGI (A498 renal) was over 27.4 µM and the TGI (A549 NSCLC) was over 77.8 µM. The TGI (ACHN renal) was over 100 µM, the TGI (BT-549 breast) was over 20.3 µM and the TGI (CAKI-1 renal) was over 100 µM. It also gave a TGI (CCRF-CEM leukemia) of 8 µM, a TGI (COLO 205 colon) of 10 µM and a TGI (DU-145 prostate) of over 39.1 µM. For the same compound, the TGI (EKVX NSCLC) was over 100 µM, the TGI (HCC-2998 colon) was 3.58 µM and the TGI (HCT-116 colon) was over 45.9 µM. For the same compound, the TGI (HCT-15 colon) was over 37.7 µM, the TGI (HL-60(TB) leukemia) was over 26.2 µM and the TGI (HOP-62 NSCLC) was over 100 µM. It also gave a TGI (HOP-92 NSCLC) of 61 µM, a TGI (HS 578T breast) of over 25.4 µM and a TGI (HT29 colon) of 3.99 µM. The TGI (IGROV1 ovarian) was 13 µM, the TGI (K-562 leukemia) was over 100 µM and the TGI (KM12 colon) was over 100 µM. The TGI (LOX IMVI melanoma) was over 100 µM, the TGI (M14 melanoma) was over 100 µM and the TGI (MALME-3M melanoma) was over 100 µM. For the same compound, the TGI (MCF7 breast) was over 100 µM, the TGI (MDA-MB-231 breast) was over 30.9 µM and the TGI (MDA-MB-435) was 0.667 µM. For the same compound, the TGI (MDA-N) was 1.43 µM, the TGI (MOLT-4 leukemia) was 33.8 µM and the TGI (NCI-H226 lung) was over 100 µM. The TGI (NCI-H23 lung) was over 100 µM, the TGI (NCI-H460 lung) was over 100 µM and the TGI (NCI-H522 lung) was 1.01 µM. The TGI (NCI/ADR-RES ovarian) was 15.3 µM, the TGI (OVCAR-3 ovarian) was 6.99 µM and the TGI (OVCAR-4 ovarian) was over 100 µM. It also gave a TGI (OVCAR-5 ovarian) of 83.3 µM, a TGI (OVCAR-8 ovarian) of over 34.5 µM and a TGI (PC-3 prostate) of over 27.2 µM. The TGI (RPMI-8226 leukemia) was 6.08 µM, the TGI (RXF 393 renal) was over 23.9 µM and the TGI (SF-268 CNS) was over 30.7 µM. For the same compound, the TGI (SF-295 CNS) was 5.33 µM, the TGI (SF-539 CNS) was over 27.2 µM and the TGI (SK-MEL-2 melanoma) was 5.36 µM. The TGI (SK-MEL-28 melanoma) was over 100 µM, the TGI (SK-MEL-5 melanoma) was 4.49 µM and the TGI (SK-OV-3 ovarian) was over 29.2 µM. The TGI (SN12C renal) was over 100 µM, the TGI (SNB-19 CNS) was over 82.8 µM and the TGI (SNB-75 CNS) was 5.84 µM. The TGI (SW-620 colon) was over 100 µM, the TGI (T-47D breast) was over 100 µM and the TGI (TK-10 renal) was over 100 µM. The TGI (U251 CNS) was over 100 µM, the TGI (UACC-257 melanoma) was over 100 µM and the TGI (UACC-62 melanoma) was over 55 µM. It also gave a TGI (UO-31 renal) of over 100 µM.
With `CC(C)(C)OC(=O)NCCC1SC2C=CC1C2` (centres undefined) the TGI (786-0 renal) was over 100 µM, the TGI (A498 renal) was over 100 µM and the TGI (A549 NSCLC) was over 100 µM. It also gave a TGI (ACHN renal) of over 100 µM, a TGI (BT-549 breast) of over 100 µM and a TGI (CAKI-1 renal) of over 100 µM. The TGI (CCRF-CEM leukemia) was over 100 µM, the TGI (COLO 205 colon) was over 100 µM and the TGI (DU-145 prostate) was over 100 µM. The TGI (EKVX NSCLC) was over 100 µM, the TGI (HCC-2998 colon) was over 100 µM and the TGI (HCT-116 colon) was over 100 µM. It also gave a TGI (HCT-15 colon) of over 100 µM, a TGI (HL-60(TB) leukemia) of over 100 µM and a TGI (HOP-62 NSCLC) of over 100 µM. The TGI (HOP-92 NSCLC) was over 100 µM, the TGI (HS 578T breast) was over 100 µM and the TGI (HT29 colon) was over 100 µM. The TGI (IGROV1 ovarian) was over 100 µM, the TGI (K-562 leukemia) was over 100 µM and the TGI (KM12 colon) was over 100 µM. It also gave a TGI (LOX IMVI melanoma) of over 100 µM, a TGI (M14 melanoma) of over 100 µM and a TGI (MALME-3M melanoma) of over 100 µM. It also gave a TGI (MCF7 breast) of over 100 µM, a TGI (MDA-MB-231 breast) of over 100 µM and a TGI (MDA-MB-435) of over 100 µM. The TGI (MDA-N) was over 100 µM, the TGI (MOLT-4 leukemia) was over 100 µM and the TGI (NCI-H226 lung) was over 100 µM. It also gave a TGI (NCI-H23 lung) of over 100 µM, a TGI (NCI-H460 lung) of over 100 µM and a TGI (NCI-H522 lung) of over 100 µM. For the same compound, the TGI (NCI/ADR-RES ovarian) was over 100 µM, the TGI (OVCAR-3 ovarian) was over 100 µM and the TGI (OVCAR-4 ovarian) was over 100 µM. For the same compound, the TGI (OVCAR-5 ovarian) was over 100 µM, the TGI (OVCAR-8 ovarian) was over 100 µM and the TGI (PC-3 prostate) was over 100 µM. It also gave a TGI (RPMI-8226 leukemia) of over 100 µM, a TGI (RXF 393 renal) of over 100 µM and a TGI (SF-268 CNS) of over 100 µM. It also gave a TGI (SF-295 CNS) of over 100 µM, a TGI (SF-539 CNS) of over 100 µM and a TGI (SK-MEL-2 melanoma) of over 100 µM. It also gave a TGI (SK-MEL-28 melanoma) of over 100 µM, a TGI (SK-MEL-5 melanoma) of over 100 µM and a TGI (SK-OV-3 ovarian) of over 100 µM. For the same compound, the TGI (SN12C renal) was over 100 µM, the TGI (SNB-19 CNS) was over 100 µM and the TGI (SNB-75 CNS) was over 100 µM. For the same compound, the TGI (SW-620 colon) was over 100 µM, the TGI (T-47D breast) was over 100 µM and the TGI (TK-10 renal) was over 100 µM. It also gave a TGI (U251 CNS) of over 100 µM, a TGI (UACC-257 melanoma) of over 100 µM and a TGI (UACC-62 melanoma) of over 100 µM. It also gave a TGI (UO-31 renal) of over 100 µM.
